The text below walks through data of paper PMC6805442, “Discovery of low-molecular weight anti-PD-L1 peptides for cancer immunotherapy” (Journal for Immunotherapy of Cancer, 2019).

The target in test [1] is T1, recombinant human PD-L1 ECD protein (Homo sapiens, UniProt Q9NZQ7).
T1 construct: the recombinant human PD-L1 ECD protein were evaluated using SPR; purchased G&P Biosciences FCL0784B
Description: SPR binding to human PD-L1. The following applies: for kon: read-out: Ka. The procedure:
Binding affinities of the PD-L1 specific peptides for human PD-L1 protein were determined by SPR (BI4500, Biosensing Instrument). PD-L1 protein was diluted to 10 μg/mL with sodium acetate buffer (pH 5.0, GE Healthcare, PA) and covalently coated onto a CM5 sensor chip (CM Dextran Sensor Chip, Biosensing Instrument) using the standard Amine Coupling Kit (GE Healthcare, PA). Approximately 6500 RU of PD-L1 protein were immobilized onto the chip. A second channel was used as a reference. HBS-EP+ buffer (GE Healthcare) was employed at a flow rate of 60 μL/min. A series of concentrations of each peptide (15, 30, 60, 125, 250, 500, 1000, 5000 and 10,000 nM) were prepared in HBS-EP+ running buffer to obtain the equilibrium dissociation constant (KD) values of the peptides. The CM5 sensor chip was regenerated with 10 mM NaOH for 20 s. The results were analyzed using the software of Bi data analysis software.
Binding affinities of the discovered peptides against the recombinant human PD-L1 ECD protein were evaluated using SPR. The PD-L1 protein was immobilized on a CM5 golden chip by the direct amine coupling method. […] Even though the binding affinity of peptides are generally lower than that of antibodies, the very high affinity of antibodies may result in on-target, off-tumor toxicity in healthy tissues that express low levels of PD-L1. In a recent study, scientists constructed several chimeric antigen receptor (CAR) T cells with different affinities to ICAM-1. […] CAR-T cells with nanomolar affinity lyse healthy cells that express a low level of ICAM-1. By contrast, CAR-T cells with micromolar affinity only attack tumor cells with high levels of ICAM-1 but not healthy cells with low levels of ICAM-1, leading to less toxicity.

Test [2] concerns the target T2, human PD-1/PD-L1 interaction (hPD-L1 protein) (Homo sapiens, UniProt Q9NZQ7).
T2 construct: G&P Biosciences, human PD-L1 ECD, cat# FCL0784B; purchased G&P Biosciences FCL0784B (PD-L1)
The test is described as follows: Blockade of the human PD-1/PD-L1 interaction, plate coated with human PD-L1 protein. The conditions noted are these: for Block Efficiency: hPD-L1 protein, blocking profile (Fig. 2d, e). The class given is biochemical. The procedure: (§1) Ninety-six-well plates were coated with 100 ng of PD-L1 protein (G&P Biosciences, human PD-L1 ECD, cat# FCL0784B. mouse PD-L1, cat# FCL3502B) and later blocked with 2% BSA for 2 h at room temperature. Various concentrations of peptides were loaded into the wells and incubated for 1 h at room temperature. […] Streptavidin-HRP (R&D systems) and chromogenic substrate were added into the wells. OD450 was then recorded and referenced to OD540.
(§2) We next examined the blocking efficiency of the anti-PD-L1 peptides at 10 μM (Fig. 2c). […] We also determined IC50 of each peptide using recombinant human PD-L1 protein and DU-145 cancer cells.

For test [3], the target named is T3, PD-1/PD-L1 interaction on DU-145 cells (Homo sapiens, UniProt Q9NZQ7).
T3 construct: when the plate was coated with DU-145 cells; endogenous in cells; host or cells: DU-145
T3 sequence (Q9NZQ7 19-290): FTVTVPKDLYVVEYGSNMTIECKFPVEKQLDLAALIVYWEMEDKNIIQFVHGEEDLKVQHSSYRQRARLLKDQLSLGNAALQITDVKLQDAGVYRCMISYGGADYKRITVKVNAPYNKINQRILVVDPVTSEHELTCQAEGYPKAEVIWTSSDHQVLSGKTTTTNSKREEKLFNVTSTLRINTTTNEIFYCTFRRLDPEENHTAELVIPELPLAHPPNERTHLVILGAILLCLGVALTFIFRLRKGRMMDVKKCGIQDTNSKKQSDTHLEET
The test is described as follows: Blockade of the PD-1/PD-L1 interaction, plate coated with DU-145 cells. The class given is cell-based. The conditions noted are these: for Block Efficiency: DU145 cancer cells, blocking profile (Fig. 2d, f). The procedure:
as §1, §2

For test [4], the target named is T4, mouse PD-1/PD-L1 interaction (mPD-L1 protein) (Mus musculus, UniProt Q9EP73).
T4 construct: purchased G&P Biosciences FCL3502B (PD-L1)
T4 sequence (Q9EP73 19-239 limits assumed): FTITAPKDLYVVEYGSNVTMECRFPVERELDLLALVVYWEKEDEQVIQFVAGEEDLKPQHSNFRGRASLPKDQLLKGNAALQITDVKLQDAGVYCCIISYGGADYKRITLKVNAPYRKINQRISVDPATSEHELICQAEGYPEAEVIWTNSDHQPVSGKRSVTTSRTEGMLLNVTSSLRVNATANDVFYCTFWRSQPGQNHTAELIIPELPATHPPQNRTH
The test is described as follows: Blockade of the mouse PD-1/PD-L1 interaction, mouse PD-L1 protein. The format is biochemical. The following applies: for Block Efficiency: mPD-L1 protein, blocking profile (Fig. 2h, i). As to the method: as §1
By contrast, the blocking efficiency of the anti-mouse PD-L1 antibody was 92%.

In test [5] the target is T5, PD-1/PD-L1 interaction on mouse cancer cell line 4 T1 (Mus musculus, UniProt Q9EP73).
T5 construct: endogenous in cells; host or cells: 4T1
T5 sequence (Q9EP73 19-290): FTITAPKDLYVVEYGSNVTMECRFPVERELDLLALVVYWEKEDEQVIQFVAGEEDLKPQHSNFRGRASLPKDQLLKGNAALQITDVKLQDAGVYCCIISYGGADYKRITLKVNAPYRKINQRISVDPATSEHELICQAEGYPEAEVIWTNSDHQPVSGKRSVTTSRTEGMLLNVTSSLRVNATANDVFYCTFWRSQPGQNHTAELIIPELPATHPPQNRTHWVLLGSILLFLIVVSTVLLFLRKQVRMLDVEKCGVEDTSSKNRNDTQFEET
Description: Blockade of the PD-1/PD-L1 interaction on 4T1 cells. The class given is cell-based. The conditions noted are these: for Block Efficiency: blocking profile (Fig. 2h, j).

Test [6] concerns the target human PD-L1/CD80 interaction (Homo sapiens, UniProt Q9NZQ7). The test is described as follows: Blockade of the CD80/PD-L1 interaction. The format is biochemical. The following applies: for blocking efficiency, CD80/PD-L1: 10 μM. The source says: The CD80/PD-L1 interaction specifically restrains T cell activation, and blockade of the interaction could enhance the anti-tumor activity of the T cells. […] We, therefore, investigated whether the anti-PD-L1 peptides block the CD80/PD-L1 interaction.
Supplementary file 40425_2019_705_MOESM1_ESM.png: Additional file 1: Figure S1. Blockade of the PD-L1/CD80 interaction by anti-PD-L1 peptides and antibody. […] IC50 and blocking efficiency of CLP002 (b) and CLP003 (c) against the human PD-L1/CD80 interaction. Results are represented as the mean ± SD (n = 3).

Like-named read-outs stand apart in the source and are kept apart here. No end group written: not given here.

T2 sequence (Q9NZQ7 19-238 limits assumed): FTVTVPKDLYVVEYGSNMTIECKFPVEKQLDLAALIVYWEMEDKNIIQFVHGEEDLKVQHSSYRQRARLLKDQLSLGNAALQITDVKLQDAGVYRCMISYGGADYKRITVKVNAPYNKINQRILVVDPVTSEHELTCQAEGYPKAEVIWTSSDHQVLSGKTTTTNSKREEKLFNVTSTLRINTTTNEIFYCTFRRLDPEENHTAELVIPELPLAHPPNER
human PD-L1/CD80 interaction, sequence (Q9NZQ7 19-238 limits assumed): as above
T1 sequence (Q9NZQ7 19-238 limits assumed): as above

For the sequence DYHDPSLPTLRK [CLP004], the kon in test [1] was found to be 5140 ± 390 M⁻¹ s⁻¹. The “Block Efficiency” value in test [2] is reported as 52%; in test [3], 60%; in test [4] it was 48%; in test [5] (4T1 cancer cells), 34%. The half-maximal inhibitory concentration (IC50) (commonly the concentration at which inhibition is half-maximal) worked out at 200 nM in test [3] (DU145 cancer cells coated on the plate) and 730 nM in test [5] (4T1 cancer cells). Besides, in test [6], the “blocking efficiency, CD80/PD-L1” value is on record as roughly 27%.

Consider HYPFRPHANQAS [CLP001], for which, in test [1], the kon was determined as 5190 ± 212 M⁻¹ s⁻¹. For the same sequence, the “Block Efficiency” value in test [2] came out at 0%; in test [3], 0%; in test [4], 34%; in test [5] (4T1 cancer cells), 35%. Further, the IC50 in test [5] (4T1 cancer cells) came out at 910 nM. In addition, the “blocking efficiency, CD80/PD-L1” value in test [6] is recorded as “approximately 17%”.

Regarding WHFSYNWRWLPP [CLP003], the kon in test [1] was 22600 M⁻¹ s⁻¹.

For WHRSYYTWNLNT [CLP002], in test [1] (SPR, human PD-L1 immobilized on CM5 chip (~6500 RU), HBS-EP+, 60 μL/min, peptide 15-10,000 nM, mean ± SD (n = 3)), the Kd (usually the equilibrium constant for the complex coming apart) stood at 366 nM. The kon in test [1] worked out at 4520 ± 666 M⁻¹ s⁻¹. The IC50 stood at 2170 nM in test [2]; 1430 nM in test [3]; 1910 nM in test [4]; 2440 nM in test [5]; 2450 nM in test [6]. Also, the “Block Efficiency” value is reported as 85% in test [2], 80% in test [3], 68% in test [4] and 61% in test [5] (4T1 cancer cells). For the same sequence, the blocking efficiency in test [4] (10 μM, mouse PD-L1 protein (Fig. 2g)) was 71%. Moreover, the “blocking efficiency, CD80/PD-L1” value in test [6] is given as roughly 48%.
